The values below come from ChEMBL document CHEMBL5390235, “Reading and erasing of histone crotonyllysine mimics by the AF9 YEATS domain and SIRT2 deacylase” (Bioorg Med Chem, 2023).

In one experiment the target is T1, Protein AF-9 (Homo sapiens, UniProt P42568).
T1 sequence (P42568 whole entry): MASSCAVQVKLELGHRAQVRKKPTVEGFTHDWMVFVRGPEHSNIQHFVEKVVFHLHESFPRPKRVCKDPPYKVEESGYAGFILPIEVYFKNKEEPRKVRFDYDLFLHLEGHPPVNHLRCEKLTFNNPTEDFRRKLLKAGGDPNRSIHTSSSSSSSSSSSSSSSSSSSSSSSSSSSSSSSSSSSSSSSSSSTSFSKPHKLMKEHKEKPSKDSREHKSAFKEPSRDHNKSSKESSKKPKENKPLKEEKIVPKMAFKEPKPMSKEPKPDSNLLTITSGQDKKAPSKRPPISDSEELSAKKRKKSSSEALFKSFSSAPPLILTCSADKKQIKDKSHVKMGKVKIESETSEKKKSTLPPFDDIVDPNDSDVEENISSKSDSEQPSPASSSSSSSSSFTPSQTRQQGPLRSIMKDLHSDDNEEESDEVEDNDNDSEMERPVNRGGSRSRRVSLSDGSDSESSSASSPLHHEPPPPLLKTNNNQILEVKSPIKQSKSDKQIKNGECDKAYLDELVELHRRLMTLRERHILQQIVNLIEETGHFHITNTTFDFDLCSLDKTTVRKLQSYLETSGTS
Put plainly: Binding affinity to N-terminal His-tagged recombinant human AF9 YEATS domain (1 to 138 residues) expressed in Escherichia coli 2(DE3)pLysS cells assessed as dissociation constant by ITC assay. Background: In ITC the heat of successive injections is recorded.

The target in experiment [1] is T2, NAD-dependent protein deacetylase sirtuin-2 (Homo sapiens) (UniProt Q8IXJ6).
T2 sequence (whole entry): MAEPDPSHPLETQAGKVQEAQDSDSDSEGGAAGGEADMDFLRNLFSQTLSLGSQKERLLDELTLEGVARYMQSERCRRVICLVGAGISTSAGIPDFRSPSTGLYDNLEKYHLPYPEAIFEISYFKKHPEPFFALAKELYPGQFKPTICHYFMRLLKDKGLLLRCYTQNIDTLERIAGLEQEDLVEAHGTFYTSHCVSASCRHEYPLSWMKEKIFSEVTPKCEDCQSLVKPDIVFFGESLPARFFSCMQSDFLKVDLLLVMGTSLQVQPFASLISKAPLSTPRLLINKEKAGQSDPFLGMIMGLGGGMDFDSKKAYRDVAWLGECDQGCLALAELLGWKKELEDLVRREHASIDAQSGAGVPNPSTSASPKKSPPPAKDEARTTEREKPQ
Put plainly: Induction of recombinant human SIRT2 (50 to 356 residues) deacetylase activity measured after 6 hrs in presence of NAD+ by MALDI-TOF-MS analysis. Set-up: concentration or dose not given beside the values.

The target in experiment [2] is T2, NAD-dependent protein deacetylase sirtuin-2 (Homo sapiens). Briefly: Induction of recombinant human SIRT2 (50 to 356 residues) deacetylase activity measured after 24 hrs in presence of NAD+ by MALDI-TOF-MS analysis.

The term Kd denotes the free concentration of one partner at which half of the binding sites on the other are occupied at equilibrium, for simple one-to-one binding.

Structures are written as SMILES. Active and inactive are the calls of the source. The rule behind the calls is not given here.

As for `CC/C=C/C(=O)NCCCC[C@H](NC(=O)[C@H](CCCNC(=N)N)NC(=O)[C@H](C)NC(=O)[C@@H](NC(=O)[C@H](CCC(N)=O)NC(=O)[C@H](CCCCN)NC(=O)[C@@H](N)[C@@H](C)O)[C@@H](C)O)C(=O)N[C@@H](CO)C(=O)N[C@H](C(=O)NCC(=O)NCC(=O)N[C@@H](CCCCN)C(=O)N[C@@H](C)C(=O)O)[C@@H](C)O`, the Kd at Protein AF-9 was 13.6 µM. In addition, the Activity in experiment [1] (filed as activator) stood at 75%.

Take `C[C@H](NC(=O)[C@H](CCCCN)NC(=O)CNC(=O)CNC(=O)[C@@H](NC(=O)[C@H](CO)NC(=O)[C@H](CCCCNC(=O)/C=C/c1ccccc1)NC(=O)[C@H](CCCNC(=N)N)NC(=O)[C@H](C)NC(=O)[C@@H](NC(=O)[C@H](CCC(N)=O)NC(=O)[C@H](CCCCN)NC(=O)[C@@H](N)[C@@H](C)O)[C@@H](C)O)[C@@H](C)O)C(=O)O`: the Kd on Protein AF-9 came to 5.1 µM. For the same compound, in experiment [2], the outcome was inactive.

For the compound `CC(C)=CC(=O)NCCCC[C@H](NC(=O)[C@H](CCCNC(=N)N)NC(=O)[C@H](C)NC(=O)[C@@H](NC(=O)[C@H](CCC(N)=O)NC(=O)[C@H](CCCCN)NC(=O)[C@@H](N)[C@@H](C)O)[C@@H](C)O)C(=O)N[C@@H](CO)C(=O)N[C@H](C(=O)NCC(=O)NCC(=O)N[C@@H](CCCCN)C(=O)N[C@@H](C)C(=O)O)[C@@H](C)O`, at Protein AF-9, the Kd amounted to 159 µM. Besides, the values for the Activity in experiment [1] and in experiment [2] were 2% and 12%, respectively.

For `C/C=C/C(=O)NCCCC[C@H](NC(=O)[C@H](CCCNC(=N)N)NC(=O)[C@H](C)NC(=O)[C@@H](NC(=O)[C@H](CCC(N)=O)NC(=O)[C@H](CCCCN)NC(=O)[C@@H](N)[C@@H](C)O)[C@@H](C)O)C(=O)N[C@@H](CO)C(=O)N[C@H](C(=O)NCC(=O)NCC(=O)N[C@@H](CCCCN)C(=O)N[C@@H](C)C(=O)O)[C@@H](C)O`, the Kd on Protein AF-9 is 7.8 µM. Also, the Activity in experiment [1] (filed as activator) came to 60%.

For the compound `C/C=C(\C)C(=O)NCCCC[C@H](NC(=O)[C@H](CCCNC(=N)N)NC(=O)[C@H](C)NC(=O)[C@@H](NC(=O)[C@H](CCC(N)=O)NC(=O)[C@H](CCCCN)NC(=O)[C@@H](N)[C@@H](C)O)[C@@H](C)O)C(=O)N[C@@H](CO)C(=O)N[C@H](C(=O)NCC(=O)NCC(=O)N[C@@H](CCCCN)C(=O)N[C@@H](C)C(=O)O)[C@@H](C)O`, at Protein AF-9, the Kd was found to be 46.5 µM. Also, in experiment [1], the Activity is 39%.

Take `C[C@H](NC(=O)[C@H](CCCCN)NC(=O)CNC(=O)CNC(=O)[C@@H](NC(=O)[C@H](CO)NC(=O)[C@H](CCCCNC(=O)/C=C/C(F)(F)F)NC(=O)[C@H](CCCNC(=N)N)NC(=O)[C@H](C)NC(=O)[C@@H](NC(=O)[C@H](CCC(N)=O)NC(=O)[C@H](CCCCN)NC(=O)[C@@H](N)[C@@H](C)O)[C@@H](C)O)[C@@H](C)O)C(=O)O`: the Kd at Protein AF-9 was 48.5 µM. In experiment [2], the outcome was inactive.

For `C=CC(=O)NCCCC[C@H](NC(=O)[C@H](CCCNC(=N)N)NC(=O)[C@H](C)NC(=O)[C@@H](NC(=O)[C@H](CCC(N)=O)NC(=O)[C@H](CCCCN)NC(=O)[C@@H](N)[C@@H](C)O)[C@@H](C)O)C(=O)N[C@@H](CO)C(=O)N[C@H](C(=O)NCC(=O)NCC(=O)N[C@@H](CCCCN)C(=O)N[C@@H](C)C(=O)O)[C@@H](C)O`, the Kd on Protein AF-9 came out at 13.7 µM. For the same compound, the Activity in experiment [1] (filed as activator) is 55%.

Take `CC#CC(=O)NCCCC[C@H](NC(=O)[C@H](CCCNC(=N)N)NC(=O)[C@H](C)NC(=O)[C@@H](NC(=O)[C@H](CCC(N)=O)NC(=O)[C@H](CCCCN)NC(=O)[C@@H](N)[C@@H](C)O)[C@@H](C)O)C(=O)N[C@@H](CO)C(=O)N[C@H](C(=O)NCC(=O)NCC(=O)N[C@@H](CCCCN)C(=O)N[C@@H](C)C(=O)O)[C@@H](C)O`: the Kd at Protein AF-9 is 20.5 µM. For the same compound, the Activity in experiment [1] came out at 30%; in experiment [2] (filed as activator), 50%.
